Reference: US12533353B2, “Methods of treatment of cancer comprising CDC7 inhibitors” (CARNA BIOSCIENCES, INC., priority 2018, dated 2026)
Read-outs that look alike come from different tables or passages of the source.

Key:
[1] = tested on: MV-4-11 tumor xenografts; experiment: Rat xenograft model of AML (MV-4-11), SRA141 monotherapy; format: in vivo; set-up: complete regressions (tumor volume <13.5 mm3 for 3 consecutive measurements): unit not given here; details: for tumor growth inhibition (TGI): 5 days of 7-day cycle, 4 weeks, Day 42; for median tumor volume: in mm³ (unit assumed)
Method: The efficacy of a Cdc7 inhibitor (compound SRA141) as a monotherapy was tested in a rat xenograft model of Acute Myelogenous Leukemia (AML) (FIG. 2). Female rnu/rnu rats were inoculated subcutaneously with 1×10^7 MV-4-11 human acute myelogenous leukemia cells. MV-4-11 cells were injected in a totally volume of 0.1 mL PBS in 1:1 Matrigel®. Rats began SRA141 treatment when tumors reached an average size of 300-400 mm^3. Rats bearing MV-4-11 tumor xenografts were orally administered (i) vehicle control (0.5% CMC-Na/1% Poloxamer 188) or (ii) SRA141 at 75 mg/kg BID for 5 consecutive days of a 7-day cycle for 4 weeks or (iii) SRA141 at 150 mg/kg QD for 5 consecutive days of a 7-day cycle for 4 weeks (n=10 per treatment group). Tumor volume measurements were taken biweekly and body weight measurements were taken biweekly to day 15, then daily to end of study. Tumor growth inhibition was calculated on Day 42, the final day of the study.

[2] = tested on: Colo-205 colon cancer cells; experiment: Sub-G1 fraction by propidium iodide flow cytometry; format: cell-based, human; details: 1 μM to 10 μM, 48 h incubation
Method: The differential cytotoxic activity of SRA141 in Colo-205 colon cancer cells versus normal human dermal fibroblast cells (NHDF) was assessed at drug concentrations ranging from 0.03 to 33.3 μM (48 h incubation). Following treatment, cells labelled with propidium iodide were analyzed by flow cytometry to determine the percentage of dying cells found in sub-G1 fractions as a consequence of apoptosis-mediated DNA fragmentation. […] In contrast, fewer than 10% of the normal cells were apoptotic as determined by sub-G1 fraction, consistent with published reports showing minimal cytotoxicity of non-transformed cells following Cdc7 inhibition (Montagnoli, 2004). Thus, these findings support a potential therapeutic index for SRA141 between tumor and non-transformed tissues.

[3] = target: Cdc7 (Homo sapiens, UniProt O00311); experiment: Rapid dilution studies (residence time, dissociation kinetics); format: binding
Sequence of Cdc7 (O00311 whole entry): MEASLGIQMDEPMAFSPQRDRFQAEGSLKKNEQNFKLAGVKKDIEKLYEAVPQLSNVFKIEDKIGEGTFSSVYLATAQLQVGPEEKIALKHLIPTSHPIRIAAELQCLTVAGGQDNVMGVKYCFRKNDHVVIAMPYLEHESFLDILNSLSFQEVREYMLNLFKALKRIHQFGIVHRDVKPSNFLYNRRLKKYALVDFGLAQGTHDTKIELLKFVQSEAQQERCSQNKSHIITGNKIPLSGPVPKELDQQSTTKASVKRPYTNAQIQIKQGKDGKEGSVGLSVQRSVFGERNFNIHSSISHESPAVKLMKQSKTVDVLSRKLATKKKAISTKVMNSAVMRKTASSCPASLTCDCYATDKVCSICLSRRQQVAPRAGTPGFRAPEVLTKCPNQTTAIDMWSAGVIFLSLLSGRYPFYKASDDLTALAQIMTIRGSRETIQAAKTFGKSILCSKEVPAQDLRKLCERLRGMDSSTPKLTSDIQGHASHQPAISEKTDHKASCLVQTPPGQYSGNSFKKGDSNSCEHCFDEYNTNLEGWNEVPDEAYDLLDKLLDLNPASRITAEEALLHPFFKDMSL
Sequence of Cdc7 (Q9UBU7 whole entry partner): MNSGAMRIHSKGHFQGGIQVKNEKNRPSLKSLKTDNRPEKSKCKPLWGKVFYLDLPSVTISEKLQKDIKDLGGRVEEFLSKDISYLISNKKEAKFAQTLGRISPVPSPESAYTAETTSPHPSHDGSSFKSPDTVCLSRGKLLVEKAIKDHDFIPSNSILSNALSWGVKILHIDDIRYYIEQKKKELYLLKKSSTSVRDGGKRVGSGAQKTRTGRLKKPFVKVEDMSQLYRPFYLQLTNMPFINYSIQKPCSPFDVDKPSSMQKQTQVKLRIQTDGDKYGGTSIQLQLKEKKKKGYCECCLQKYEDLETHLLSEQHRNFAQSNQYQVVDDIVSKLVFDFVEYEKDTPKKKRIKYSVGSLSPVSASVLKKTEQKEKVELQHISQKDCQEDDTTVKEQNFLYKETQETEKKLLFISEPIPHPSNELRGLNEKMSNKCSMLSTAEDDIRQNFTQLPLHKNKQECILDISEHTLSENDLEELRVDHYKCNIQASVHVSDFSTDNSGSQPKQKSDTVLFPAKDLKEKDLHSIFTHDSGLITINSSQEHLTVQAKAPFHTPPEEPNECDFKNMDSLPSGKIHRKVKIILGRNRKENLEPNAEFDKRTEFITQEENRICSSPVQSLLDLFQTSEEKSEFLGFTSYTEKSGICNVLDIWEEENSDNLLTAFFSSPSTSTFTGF

[4] = tested on: MCM2, Ser40/41 and Ser53 (Colo-205 cells); experiment: Phosphorylation status of Cdc7 target MCM2 in cells; format: cell-based, human; details: Colo-205, 8 to 24 hours
Method: Colo-205 cells were treated with SRA141 (at concentrations between 0.033 and 3.3 μM) for 8 to 24 hours with subsequent assessment of the phosphorylation status of the downstream targets for Cdc7 (MCM2, Ser40/41 and Ser53), and the putative off-target kinases CDK8 (STAT1, Ser727); CDK7 and 9 (RNA pol II, Ser2); LATS2 (YAP1, Ser127) as well as the levels of MCL-1, known to be indirectly controlled by CDK9 (Gregory, 2015).

[5] = tested on: AML-blast progenitors; experiment: 3D growth in methylcellulose matrix, 14 days; format: cell-based
Method: (§1) The anti-proliferative activity of SRA141 (0.3-5 μM) was also evaluated in additional 3D growth studies conducted in a methylcellulose growth matrix using normal human myeloid (n=3) and AML-blast progenitors incubated for 14 days.

[6] = tested on: normal human myeloid progenitors (normal bone marrow); experiment: 3D growth in methylcellulose matrix, 14 days; format: cell-based
Method: as §1

[7] = tested on: A20 tumor xenografts; experiment: A20 immunocompetent lymphoma xenograft model; format: in vivo; details: 120 mg/kg orally
Method: Immunocompetent female BALB/c mice bearing A20 tumor xenografts were administered (i) control (PBS, intraperitoneal) or (ii) SRA141 120 mg/kg orally; n=8 animals per group). Dosing occurred on Days 0 to 4, 7 to 11, and 14 to 18. Tumor growth inhibition was calculated on Day 23, the final day of the study.

[8] = tested on: MDA-MB-486 breast tumor xenografts; experiment: MDA-MB-486 breast xenograft study; format: in vivo; details: for tumor growth inhibition: 5 weeks, Day 35
Method: Female CB-17 SCID mice bearing MDA-MB-486 breast tumor xenografts were orally administered (i) vehicle control (0.1 M HCl/0.5% MC400) or (ii) SRA141 30 or 60 mg/kg BID for 5 weeks (n=10 per treatment group). Tumor growth inhibition was calculated on Day 35, the final day of the study.

[9] = In vitro plasma protein binding; format: in vitro ADME; details: human
[10] = Red blood cell partitioning; format: in vitro ADME; details: any species matrix
[11] = Absolute oral bioavailability; details: in vivo, free base suspension, fasted, range given for mouse, rat and dog together, read-out: absolute oral bioavailability (% F)
[12] = Absolute oral bioavailability; details: in vivo, free base suspension, fasted, range given for mouse, rat and dog together, read-out: absolute oral bioavailability (% F); remark: listed apart in the source
[13] = Absolute oral bioavailability; details: dog, in vivo, read-out: absolute oral bioavailability (% F)

CCOC(=O)C1=C(NN2CCN(CC(F)(F)F)CC2)O/C(=C\c2c[nH]c3ncccc23)C1=O [SRA141]
complete regressions (tumor volume <13.5 mm3 for 3 consecutive measurements) ([1]; 75 mg/kg BID): 1 | partial regressions (tumor volume <50% of initial volume for 3 consecutive measurements) ([1]; 75 mg/kg BID): 3 | tumor growth inhibition (TGI) ([1]; 75 mg/kg BID): 86.1% | median tumor volume ([1]; 75 mg/kg group (n=8)): 1838 | partial regressions ([1]; 150 mg/kg QD): 2 | tumor growth inhibition (TGI) ([1]; 150 mg/kg QD): 86.7% | median tumor volume ([1]; 150 mg/kg group (n=9)): 1764 | tolerability ([1]; all treatments): well tolerated with no significant body weight loss | percentage of dying cells in sub-G1 fraction [2]: ≤ 62% | koff ([3]; at 5 nM): 5.33e-05 s⁻¹ | residence time ([3]; rapid dilution, read-out: residence time t1/2): 215 min | concentration from which MCM2 phosphorylation at Ser40/41 and Ser53 was reduced [4]: 0.033 µM | primary AML samples responding with a Therapeutic Index [(Primary AML IC50)÷(BMNC control IC50)] ([5]; 9 primary AML samples): 5 out of 9 | IC50 ([5]; AML810 censored, read-out: mean IC50, AML samples): ~0.16 µM | IC50 ([5]; AML-blast progenitor 180, read-out: IC50): 0.337 µM | IC50 ([5]; AML-blast progenitor 190, read-out: IC50): 0.073 µM | IC50 ([5]; AML-blast progenitor 200, read-out: IC50): 0.119 µM | IC50 ([5]; AML-blast progenitor 250, read-out: IC50): 0.159 µM | IC50 ([5]; AML-blast progenitor 260, read-out: IC50): 0.14 µM | IC50 ([5]; AML-blast progenitor 717, read-out: IC50): 0.118 µM | IC50 ([5]; AML-blast progenitor 810 (sample censored), read-out: IC50): 0.831 µM | IC50 ([5]; AML-blast progenitor 915, read-out: IC50): 0.177 µM | IC50 ([5]; AML-blast progenitor 917, read-out: IC50): 0.202 µM | IC50 ([5]; with AML 810, read-out: Mean AML-blast progenitor IC50 (with AML 810)): 0.24 ± 0.234 µM | IC50 ([5]; without AML 810, read-out: Mean AML-blast progenitor IC50 (without AML 810)): 0.166 ± 0.08 µM | IC50 ([6]; Normal bone marrow 111, read-out: IC50): 0.165 µM | IC50 ([6]; Normal bone marrow 525 (first line), read-out: IC50): 0.375 µM | IC50 ([6]; Normal bone marrow 525 (second line), read-out: IC50): 0.212 µM | IC50 ([6]; mean of 3 samples, read-out: Mean normal bone marrow IC50): 0.251 ± 0.11 µM | IC50 ([6]; read-out: mean IC50, normal bone marrow preparations): 0.25 µM | tolerability [7]: tolerated | tumor growth inhibition ([7]; Days 0 to 4, 7 to 11, 14 to 18, Day 23): 59% | tolerability ([8]; 30 mg/kg BID): well tolerated | tumor growth inhibition ([8]; 30 mg/kg BID): 26% | mice with maximum body weight loss greater than 20% ([8]; 60 mg/kg BID): Six of 10 | tumor growth inhibition ([8]; 60 mg/kg BID): 53% | fraction unbound [9]: < 0.1 | partition into red blood cells [10]: did not preferentially partition into red blood cells | bioavailability [11]: 31 to 54% | bioavailability [12]: 31 to 54% | bioavailability ([13]; free base suspension, fasted, range given for mouse, rat and dog together): 31 to 54% | bioavailability ([13]; two proposed clinical drug product capsule presentations): 41 to 62%
